Measured values taken from article PMC8998355, “Diversity-Oriented Synthesis Catalyzed by Diethylaminosulfur-Trifluoride—Preparation of New Antitumor Ecdysteroid Derivatives” (International Journal of Molecular Sciences, 2022).

Tests used:
[1] = test system: L5178Y mouse T-cell lymphoma cells; experiment: MTT cytotoxicity assay (24 h, 1 × 10^4 cells); format: cell-based; conditions: 24 h MTT, n = 3, read-out: Cytotoxicity (IC50 ± SD)
Procedure: (§1) To assess the compounds’ effect on cell growth and viability, we used two different experimental setups of MTT assay. This allowed a comparative evaluation of results obtained from a short-term (24 h) treatment of a relatively higher number (10,000) of cells and those from a long-term (72 h) treatment of a lower cell number (6000), which makes it possible to gain some insight into the cytotoxic vs. cytostatic properties of the compounds. Even though MTT assay is an endpoint detection method, i.e., it provides a single readout of viable cells at the end of the experiment, such a comparison offers a reliable tool to identify antiproliferative activity of compounds that are not cytotoxic.
(§2) L5178Y mouse T-cell lymphoma cells (ECACC Cat. No. 87111908) were obtained from FDA, Silver Spring, MD, USA. These were transfected with pHa MDR1/A retrovirus as described previously. ABCB1-expressing L5178YMDR cells were selected by culturing the infected cells with colchicine. The cell lines were cultured in McCoy’s 5A medium supplemented with 10% heat inactivated horse serum, 2 mM L-glutamine, and penicillin–streptomycin mixture.
(§3) MTT assay was performed in 96-well flat-bottomed microtiter plates as described before. Briefly, a 10 mM concentration stock solution in DMSO was prepared for each compound. These were diluted in 100 μL of McCoy’s 5A medium. Subsequently, 1 × 10^4 (cytotoxicity assay) or 6 × 10^3 (antiproliferative assay) T-cell mouse lymphoma cells in 100 μL of medium were added to each well, except for the medium control wells.
(§4) The culture plates were further incubated at 37 °C for 24 h (cytotoxicity assay) or 72 h (antiproliferative assay); at the end of the incubation period, 20 μL of MTT solution (from a 5 mg/mL stock) was added to each well. After incubation at 37 °C for 4 h, 100 μL of SDS solution (10% in 0.01 M HCI) was added to each well and the plates were further incubated at 37 °C overnight. The cell growth was determined by measuring the optical density at 540 nm (ref. 630 nm) with a Multiscan EX ELISA reader (Thermo Labsystems, Cheshire, WA, USA). IC50 values were calculated by variable slope nonlinear regression using the log(inhibitor) vs. normalized response of GraphPad Prism 5.01 (GraphPad Software Inc., San Diego, CA, USA).

[2] = test system: L5178YMDR cells (ABCB1-expressing); experiment: MTT cytotoxicity assay (24 h, 1 × 10^4 cells); format: cell-based; conditions: Mus musculus, 24 h MTT, n = 3, read-out: Cytotoxicity (IC50 ± SD)
Procedure: as §1, §2, §3, §4

[3] = MTT cytotoxicity assay (24 h); format: cell-based; conditions: human, MRC-5 human embryonal lung fibroblasts; MRC-5, 24 h MTT, n = 3; read-out: Cytotoxicity (IC50 ± SD)
Procedure: as §1
(§5) MRC-5 human embryonal lung fibroblasts (CCL-171, ATCC) were acquired from Sigma-Aldrich (Merck, KGaA, Darmstadt, Germany), and were cultured in EMEM medium containing 4.5 g/L glucose and supplemented with a non-essential amino acid mixture, a selection of vitamins, and 10% of FBS.
(§6) The adherent human fibroblast cells were seeded in 100 μL of EMEM medium overnight before each assay. Two-fold serial dilutions of the compounds (0.19–100 µM) were prepared in separate plates, then transferred to the plates containing the adherent cell lines.
as §4

[4] = test system: L5178Y mouse T-cell lymphoma cells; experiment: MTT antiproliferative assay (72 h, 6 × 10^3 cells); format: cell-based; conditions: Mus musculus; L5178Y, 72 h MTT, n = 3; read-out: Antiproliferative Effect (IC50 ± SD)
Procedure: as §1, §2, §3, §4

[5] = test system: L5178YMDR cells (ABCB1-expressing); experiment: MTT antiproliferative assay (72 h, 6 × 10^3 cells); format: cell-based; conditions: Mus musculus, 72 h MTT, n = 3, read-out: Antiproliferative Effect (IC50 ± SD)
Procedure: as §1, §2, §3, §4

[6] = test system: MRC-5 human embryonal lung fibroblasts; experiment: MTT antiproliferative assay (72 h); format: cell-based; conditions: Homo sapiens, MRC5; MRC-5, 72 h MTT, n = 3; read-out: Antiproliferative Effect (IC50 ± SD)
Procedure: as §1, §5, §6, §4

ABCB1 = molecular target: T1, ABCB1 (Homo sapiens, UniProt P08183); experiment: ABCB1 inhibition assay (rhodamine 123 accumulation, flow cytometry); format: cell-based; conditions: human, probe rhodamine 123 (5.2 µM), L5178YMDR, rhodamine 123 accumulation, n = 1
T1 construct: expressed in transfected cells; host or cells: L5178Y mouse T-cell lymphoma cells transfected with pHa MDR1/A retrovirus, selected with colchicine (L5178YMDR)
Procedure: ABCB1 inhibition was determined by the intracellular accumulation of rhodamin 123 as reported before. Briefly, 2 × 10^6 cells/mL of L5178Y and L5178YMDR cell lines were re-suspended in serum-free McCoy’s 5A medium and distributed in 0.5 mL aliquots into Eppendorf centrifuge tubes. The compounds were added at a final concentration of 2 or 20 μM and the samples were incubated for 10 min at room temperature. Tariquidar was used as positive control and DMSO as negative control; for the latter, no activity was observed. Subsequently, 10 μL (5.2 μM final concentration) of the ABCB1 substrate fluorescent dye rhodamine 123 was added and the cells were incubated further for 20 min at 37 °C, washed twice and re-suspended in 1 mL PBS for analysis. Fluorescence of the cell population was measured with a PartecCyFlow® flow cytometer (Partec, Münster, Germany). Mean fluorescence intensity percentage was calculated for the treated vs. untreated L5178YMDR cells. Inhibition percentage for the treated cells was calculated from the corresponding values of the untreated L5178Y and L5178YMDR cells, representing 100% and 0% inhibition, respectively.

L5178YMDR cells = experiment: Combination assay with doxorubicin (checkerboard microplate method, MTT); format: cell-based, mouse; parameters: Dm (antilog of the x-intercept of the median-effect plot): unit not given here; conditions: for CIavg (weighted average CI): (CI50 + 2CI75 + 3CI90)/6
Procedure: Compounds 7, 10, 11, 13, and 14 had sufficient individual antiproliferative properties for their assessment of chemo-sensitizing activity. This was carried out as an antiproliferative assay on L5178YMDR cells in combination with doxorubicin, arranged according to the checkerboard microplate method.
The checkerboard microplate method was used to evaluate the compounds’ interaction with doxorubicin, as described before. Briefly, doxorubicin (2 mg/mL, Teva Pharmaceuticals, Budapest, Hungary) was serially diluted in the horizontal direction (100 µL per well), and the ecdysteroid was subsequently diluted in the vertical direction (50 µL per well). L5178YMDR cells were re-suspended in culture medium and added to each test well in 50 µL to contain 1 × 10^4 cells per well, and 50 µL of medium was added to the medium control wells. The plates were incubated for 72 h at 37 °C in a CO2 incubator and, at the end of the incubation period, the cell growth was determined by MTT assay as described above. Cell viability data were analyzed by the Calcusyn software using the Chou method, and drug interactions were expressed as combination index (CI) values, in which 0 < CI < 1, CI = 1, and CI > 1 refer to synergism, additivity, and antagonism, respectively.

[7] = parameters: method as in PMID 34825653; conditions: cited from earlier work
[8] = drug ratio 23.2:1, with doxorubicin
[9] = drug ratio 46.4:1, with doxorubicin
[10] = drug ratio 92.8:1, with doxorubicin
[11] = drug ratio 185.6:1, with doxorubicin
[12] = drug ratio 371.2:1, with doxorubicin

| SMILES | IC50 [1] [µM] | IC50 [2] [µM] | IC50 at 24 h [3] [µM] | IC50 [4] [µM] | IC50 [5] [µM] | IC50 [6] [µM] | inhibition at 20 min, 2 µM (ABCB1) [%] | inhibition at 20 min, 20 µM (ABCB1) [%] | CI at ED75 (L5178YMDR cells; [8]) | CI at ED90 (L5178YMDR cells; [8]) | Dm (antilog of the x-intercept of the median-effect plot) (L5178YMDR cells; [8]) | CIavg (weighted average CI) (L5178YMDR cells; [8]) | CI at ED75 (L5178YMDR cells; [9]) | CI at ED90 (L5178YMDR cells; [9]) | Dm (antilog of the x-intercept of the median-effect plot) (L5178YMDR cells; [9]) | CIavg (weighted average CI) (L5178YMDR cells; [9]) | CI at ED75 (L5178YMDR cells; [10]) | CI at ED90 (L5178YMDR cells; [10]) | Dm (antilog of the x-intercept of the median-effect plot) (L5178YMDR cells; [10]) | CIavg (weighted average CI) (L5178YMDR cells; [10]) | also measured |
| --- | --- | --- | --- | --- | --- | --- | --- | --- | --- | --- | --- | --- | --- | --- | --- | --- | --- | --- | --- | --- | --- |
| CC(=O)[C@H]1CC=C2C3=CC(=O)[C@@H]4C[C@H]5OC(C)(C)O[C@H]5C[C@]4(C)[C@H]3CC[C@@]21C [Compound 10] | 72.9 ± 5.6 | 83 ± 5 | > 100 | 27.7 ± 0.6 | 42.3 ± 1.5 | > 100 | -0.38 | -0.16 | 0.50 | 0.33 | 6.50 | 0.46 | 0.51 | 0.30 | 10.99 | 0.46 | 0.55 | 0.35 | 14.02 | 0.50 | CI at ED75 (L5178YMDR cells; [11]): 0.61; CI at ED90 (L5178YMDR cells; [11]): 0.36; Dm (antilog of the x-intercept of the median-effect plot) (L5178YMDR cells; [11]): 19.47; CIavg (weighted average CI) (L5178YMDR cells; [11]): 0.55 |
| CC(C)(O)CC[C@@H](O)[C@](C)(O)[C@H]1CC[C@@]2(O)C3=CC(=O)[C@@H]4C[C@@H](O)[C@@H](O)C[C@]4(C)[C@H]3CC[C@]12C [20-hydroxyecdysone] |  |  |  |  |  |  |  |  |  |  |  |  |  |  |  |  |  |  |  |  | MasR activity, in words [7]: agonist |
| CC(=O)N[C@H]1CC[C@@]2(F)C3=CC(=O)[C@@H]4C[C@H]5OC(C)(C)O[C@H]5C[C@]4(C)[C@H]3CC[C@]12C [Compound 14] | > 100 | > 100 | > 100 | 71.6 ± 1.5 | 65.9 ± 2.1 | > 100 | 0.2 | -0.12 | 0.73 | 0.63 | 9.04 | 0.70 | 0.72 | 0.60 | 13.53 | 0.68 | 0.86 | 0.74 | 20.47 | 0.82 | CI at ED75 (L5178YMDR cells; [11]): 1.26; CI at ED90 (L5178YMDR cells; [11]): 1.24; Dm (antilog of the x-intercept of the median-effect plot) (L5178YMDR cells; [11]): 30.97; CIavg (weighted average CI) (L5178YMDR cells; [11]): 1.25 |
| CC(=O)[C@H]1CC[C@@]2(F)C3=CC(=O)[C@@H]4C[C@H]5OC(C)(C)O[C@H]5C[C@]4(C)[C@H]3CC[C@]12C [Compound 11] | 91.9 ± 9.3 | 81.9 ± 2.9 | > 100 | 31.8 ± 2.1 | 55.7 ± 5.9 | 10 ± 2.1 | -0.57 | -0.51 | 0.56 | 0.41 | 7.00 | 0.52 | 0.55 | 0.39 | 11.66 | 0.51 | 0.53 | 0.38 | 15.83 | 0.49 | CI at ED75 (L5178YMDR cells; [11]): 0.66; CI at ED90 (L5178YMDR cells; [11]): 0.48; Dm (antilog of the x-intercept of the median-effect plot) (L5178YMDR cells; [11]): 24.06; CIavg (weighted average CI) (L5178YMDR cells; [11]): 0.61; CI at ED75 (L5178YMDR cells; [12]): 0.72; CI at ED90 (L5178YMDR cells; [12]): 0.55; Dm (antilog of the x-intercept of the median-effect plot) (L5178YMDR cells; [12]): 28.63; CIavg (weighted average CI) (L5178YMDR cells; [12]): 0.67 |
